Experimental data: patent US6462060B2, “Heterocyclic-hydroxyimino-fluorene nuclei compounds and pharmaceutical compositions for inhibiting protein kinases, and methods for their use” (Agouron Pharmaceuticals, Inc., priority 2000, dated 2002)

Assays:
CDK4/Cyclin D3 complex = molecular target: T1, CDK4/Cyclin D3 complex (Homo sapiens, UniProt P11802); assay: CDK4/Cyclin D assay (32P incorporation into Rb fragment); assay type: biochemical; details: apparent Ki; 50 nM CDK4/Cyclin D3 complex, 25 μM ATP
T1 construct: made in house; host or cells: insect cells co-infected with baculovirus expression vectors
Protocol: CDK4/Cyclin D Construct for Assay: A complex of human CDK4 and cyclin D3, or a complex of cyclin D1 and a fusion protein of human CDK4 and glutathione-S-transferase (GST-CDK4), was purified using traditional biochemical chromatographic techniques from insect cells that had been co-infected with the corresponding baculovirus expression vectors.
(§1) CDK2/Cyclin A and CDK4/Cyclin D Assays
Cyclin-dependent kinase activity was measured by quantifying the enzyme-catalyzed, time-dependent incorporation of radioactive phosphate from [^32P]ATP into a recombinant fragment of the retinoblastoma protein. Unless noted otherwise, assays were performed in 96-well plates in a total volume of 50 μL, in the presence of 10 mM HEPES (N-[2-hydroxyethyl]piperazine-N′-[2-ethanesulfonic acid]) (pH 7.4), 10 mM MgCl2, 25 μM adenosine triphosphate (ATP), 1 mg/mL ovalbumin, 5 μg/mL leupeptin, 1 mM dithiothreitol, 10 mM β-glycerophosphate, 0.1 mM sodium vanadate, 1 mM sodium fluoride, 2.5 mM ethylene glycol-bis(β-aminoethyl ether)-N,N,N′N′-tetraacetic acid (EGTA), 2% (v/v) dimethylsulfoxide, and 0.03-0.2 μCi [^32P]ATP. The substrate (0.3-0.5 μg) was purified recombinant retinoblastoma protein fragment (Rb) (residues 386-928 of the native retinoblastoma protein; 62.3 kDa, containing the majority of the phosphorylation sites found in the native 1 06kDa protein, as well as a tag of six histidine residues for ease of purification). Reactions were initiated with CDK2 (150 nM CDK2/Cyclin A complex) or CDK4 (50 nM CDK4/Cyclin D3 complex), incubated at 30° C., and terminated after 20 minutes by the addition of ethylenediaminetetraacetic acid (EDTA) to 250 mM. The phosphorylated substrate was then captured on a nitrocellulose membrane using a 96-well filtration manifold, and unincorporated radioactivity was removed by repeated washing with 0.85% phosphoric acid. Radioactivity was quantified by exposing the dried nitrocellulose membranes to a phosphorimager. Apparent Ki values were measured by assaying enzyme activity in the presence of different compound concentrations and subtracting the background radioactivity measured in the absence of enzyme. The kinetic parameters (kcat, Km for ATP) were measured for each enzyme under the usual assay conditions by determining the dependence of initial rates on ATP concentration. The data were fit to an equation for competitive inhibition using Kaleidagraph (Synergy Software), or were fit to an equation for competitive tight-binding inhibition using the software KineTic (BioKin, Ltd.). The specific activity of CDK4 was the same whether complexed to full-length cyclin D3 or the truncated Cyclin D3 construct; both complexes also yielded very similar Ki values for selected inhibitors.

[1] = molecular target: T2, phosphorylated VEGF-R2Δ50 (FLVK-P) (Homo sapiens, UniProt P35968, DEL940-989/E990V); assay: VEGF-R2 coupled spectrophotometric (FLVK-P) assay; assay type: biochemical; details: phosphorylated VEGF-R2Δ50, 1 mM ATP
T2 construct: VEGF-R2Δ50 contains residues 806-939 and 990-1171; made in house; host or cells: baculovirus/insect cell system
From the text: VEGF-R2 Construct for Assay: A construct (VEGF-R2Δ50) of the cytosolic domain of human vascular endothelial growth factor receptor 2 (VEGF-R2) lacking the 50 central residues of the 68 residues of the kinase insert domain was expressed in a baculovirus/insect cell system. Of the 1356 residues of full-length VEGF-R2, VEGF-R2Δ50 contains residues 806-939 and 990-1171, and also one point mutation (E990V) within the kinase insert domain relative to wild-type VEGF-R2. See McTigue et al., Structure, 7, 319-330 (1999); U.S. patent application Ser. No. 09/390,326, filed Sep. 7, 1999. Autophosphorylation of the purified construct was performed by incubation of the enzyme at a concentration of 4 μM in the presence of 3 mM ATP and 40 mM MgCl2 in 100 mM Hepes, pH 7.5, containing 5% glycerol and 5 mM DTT, at 4° C. for 2 h. […] See Parast et al., Biochemistry, 37, 16788-16801 (1998).
Coupled Spectrophotometric (FLVK-P) Assay
The production of ADP from ATP that accompanies phosphoryl transfer was coupled to oxidation of NADH using phosphoenolpyruvate (PEP) and a system having pyruvate kinase (PK) and lactic dehydrogenase (LDH). The oxidation of NADH was monitored by following the decrease of absorbance at 340 nm (e340=6.22 cm^−1 mM^−1) using a Beckman DU 650 spectrophotometer. Assay conditions for phosphorylated VEGF-R2Δ50 (indicated as FLVK-P in the tables below) were the following: 1 mM PEP; 250 μM NADH; 50 units of LDH/mL; 20 units of PK/mL; 5 mM DTT; […]; 1 mM ATP; and 25 mM MgCl2 in 200 mM Hepes, pH 7.5. Assay conditions for unphosphorylated VEGF-R2Δ50 (indicated as FLVK in the tables) were the following: 1 mM PEP; 250 ,M NADH; 50 units of LDH/mL; 20 units of PK/mL; 5 mM DTT; 20 mM poly(E4Y1); 3 mM ATP; and 60 mM MgCl2 and 2 mM MnCl2 in 200 mM Hepes, pH 7.5. Assays were initiated with 5 to 40 nM of enzyme. Ki values were determined by measuring enzyme activity in the presence of varying concentrations of test compounds. The data were analyzed using Enzyme Kinetic and Kaleidagraph software.

CHK-1 KH289 = molecular target: T3, CHK-1 KH289 (Homo sapiens, UniProt O14757); assay: CHK-1 assay (coupled spectrophotometric, Syntide-2); assay type: biochemical; details: for Ki: 10 nM CHK-1 KH289, 0.15 mM ATP
T3 construct: CHK-1 KH289 contains residues 1-289 of human CHK-1; 6xHis (C); made in house; host or cells: baculovirus/insect cell system
T3 sequence (O14757 1-289): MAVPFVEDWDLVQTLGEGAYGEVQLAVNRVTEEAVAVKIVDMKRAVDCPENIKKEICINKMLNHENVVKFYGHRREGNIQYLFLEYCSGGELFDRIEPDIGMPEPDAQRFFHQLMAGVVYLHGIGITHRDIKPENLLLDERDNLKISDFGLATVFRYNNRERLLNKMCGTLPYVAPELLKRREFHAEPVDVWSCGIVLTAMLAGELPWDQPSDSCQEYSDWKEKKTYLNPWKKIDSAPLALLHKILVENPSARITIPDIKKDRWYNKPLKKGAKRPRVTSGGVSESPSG
From the text: CHK-1 KH289 contains residues 1-289 of human CHK-1 including the kinase domain. It contains 6 histidine residues (6×His-tag) at the C-terminus of residue 289. The protein was expressed in a baculovirus/insect cell system and purified by conventional chromatographic techniques.
(§2) The production of ADP from ATP that accompanies phosphoryl transfer to the synthetic substrate peptide Syntide-2 ([…]) was coupled to oxidation of NADH using phosphoenolpyruvate (PEP) through the actions of pyruvate kinase (PK) and lactic dehydrogenase (LDH). The oxidation of NADH was monitored by following the decrease of absorbance at 340 nm (ε340=6.22 cm^−1 mM^−1) using a HP8452 spectrophotometer. Typical reaction solutions contained: 4 mM PEP; 0.15 mM NADH; 28 units of LDH/ml; 16 units of PK/ml; 3 mM DTT; 0.125 mM Syntide2Σ; 0.15 mM ATP; 25 mM MgCl2 in 50 mM TRIS, pH 7.5; and 400 mM NaCl. Assays were initiated with 10 nM of CHK-1 KH289. Ki values were determined by measuring initial enzyme activity in the presence of varying concentrations of test compounds. The data were analyzed using Enzyme Kinetic and Kaleidagraph software.

CDS1/CHK-2 (CDS1 CE4) = molecular target: T4, CDS1/CHK-2 (CDS1 CE4) (Homo sapiens, UniProt O96017); assay: CDS1 assay (conditions identical to the CHK-1 assay); assay type: biochemical; details: 10 nM CDS1
T4 construct: CDS1 CE4 contains residues 209-502 including the kinase domain; 6xHis leader with thrombin site; first M absent from the expressed protein) (N); made in house; host or cells: E. coli
From the text: CDS1 Construct for Assay: CDS1 CE4 contains residues 209-502 including the kinase domain of human CDS1/CHK-2 (GenBank accession number AFO86904, Matsuoka et al., Science, 282, 1893-97 (1998)). It contains the amino acid sequence: […] at the N-terminus of residue 209. (The first M is not present in the expressed protein due to post-translational processing of the N-terminus.) The protein was expressed in E. coli and purified by conventional chromatographic techniques.
as §2
The CDS 1 assay was prepared under identical conditions to that of the CHK-1 assay, except with the use of 10 nM of CDS1.

CDK2/Cyclin A complex = CDK2/Cyclin A complex (Homo sapiens, UniProt P24941); assay: CDK2/Cyclin A assay (32P incorporation into Rb fragment); assay type: biochemical; details: apparent Ki; 150 nM CDK2/Cyclin A complex, 25 μM ATP
From the text: CDK2/Cyclin A Construct for Assay: CDK2 was purified using published methodology (Rosenblatt et al., J. Mol. Biol., 230, 1317-1319 (1993)) from insect cells that had been infected with a baculovirus expression vector. Cyclin A was purified from E. coli cells expressing full-length recombinant cyclin A, and a truncated cyclin A construct was generated by limited proteolysis and purified as described previously (Jeffrey et al., Nature, 376, 313-320 (1995)).
as §1
Cyclin-dependent kinase activity was measured by quantifying the enzyme-catalyzed, time-dependent incorporation of radioactive phosphate from [^32P]ATP into a recombinant fragment of the retinoblastoma protein. […] The phosphorylated substrate was then captured on a nitrocellulose membrane using a 96-well filtration manifold, and unincorporated radioactivity was removed by repeated washing with 0.85% phosphoric acid. Radioactivity was quantified by exposing the dried nitrocellulose membranes to a phosphorimager. Apparent Ki values were measured by assaying enzyme activity in the presence of different compound concentrations and subtracting the background radioactivity measured in the absence of enzyme. The kinetic parameters (kcat, Km for ATP) were measured for each enzyme under the usual assay conditions by determining the dependence of initial rates on ATP concentration. […]

HCT 116 cells = assay: Inhibition of cell growth, MTT assay, HCT 116; assay type: cell-based; details: Homo sapiens, HCT-116, 144 h, four to six days incubation
Protocol: (§3) Inhibition of Cell Growth: Assessment of Anti-proliferation with U2-OS, SAOS2, HCT116 Cancer Cell Lines
(§4) Inhibition of cell growth was measured using the tetrazolium salt assay, which is based on the ability of viable cells to reduce 3-(4,5-dimethylthiazol-2-yl)-2,5-[2H]-diphenyltetrazolium bromide (MTT) to formazan (Mossman, J. Immunological Methods, 65, 55-58 (1983)). The water-insoluble purple formazan product was then detected spectrophotometrically. The HCT 116, U2-OS, and SAOS 2 cell lines were each grown in 96-well plates, respectively. Cells were plated in the appropriate medium at a volume of 135 μL/well in McCoy's 5A Medium. Plates were incubated for 4 h before addition of inhibitor compounds.
(§5) Different concentrations of inhibitor compounds were added in 0.5% (v/v) dimethylsulfoxide (μL/well), and cells were incubated at 37° C. (5% CO2) for four to six days (depending on cell type). At the end of the incubation, MTT was added to a final concentration of 0.2 mg/mL, and cells were incubated for 4 h more at 37° C. After centrifugation of the plates and removal of medium, the absorbance of the formazan (solubilized in dimethylsulfoxide) was measured at 540 nm. The concentration of inhibitor compound causing 50% inhibition of growth was determined from the linear portion of a semi-log plot of inhibitor concentration versus percentage inhibition. […]

U2-OS cells = assay: Inhibition of cell growth, MTT assay, U2-OS; assay type: cell-based; details: Homo sapiens, U2OS, 144 h, four to six days incubation
Protocol: as §3, §4, §5

SAOS 2 cells = assay: Inhibition of cell growth, MTT assay, SAOS 2; assay type: cell-based; details: Homo sapiens, SAOS-2, 144 h, four to six days incubation, read-out: SAOS2 IC50
Protocol: as §3, §4, §5

T4 sequence (O96017 209-502): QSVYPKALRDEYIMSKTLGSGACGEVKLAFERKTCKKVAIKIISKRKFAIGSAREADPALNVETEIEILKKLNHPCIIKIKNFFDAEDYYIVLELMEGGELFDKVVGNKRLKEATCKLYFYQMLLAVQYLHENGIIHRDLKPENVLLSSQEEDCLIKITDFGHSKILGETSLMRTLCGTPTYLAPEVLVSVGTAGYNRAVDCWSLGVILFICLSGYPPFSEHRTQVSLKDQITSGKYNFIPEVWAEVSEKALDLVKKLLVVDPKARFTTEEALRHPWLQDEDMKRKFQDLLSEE
T2 sequence (P35968 with tags, fused parts or gaps DEL940-989/E990V limits assumed): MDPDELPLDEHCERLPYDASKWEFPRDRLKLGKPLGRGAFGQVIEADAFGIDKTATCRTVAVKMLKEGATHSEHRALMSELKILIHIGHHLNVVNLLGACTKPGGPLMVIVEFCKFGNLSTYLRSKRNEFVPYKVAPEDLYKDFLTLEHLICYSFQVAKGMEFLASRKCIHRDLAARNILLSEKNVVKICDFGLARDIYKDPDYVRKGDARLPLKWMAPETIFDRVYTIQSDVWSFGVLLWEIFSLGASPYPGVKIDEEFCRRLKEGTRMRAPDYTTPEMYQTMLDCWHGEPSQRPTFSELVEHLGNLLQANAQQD
T1 sequence (P11802 whole entry, the tested form may be a part): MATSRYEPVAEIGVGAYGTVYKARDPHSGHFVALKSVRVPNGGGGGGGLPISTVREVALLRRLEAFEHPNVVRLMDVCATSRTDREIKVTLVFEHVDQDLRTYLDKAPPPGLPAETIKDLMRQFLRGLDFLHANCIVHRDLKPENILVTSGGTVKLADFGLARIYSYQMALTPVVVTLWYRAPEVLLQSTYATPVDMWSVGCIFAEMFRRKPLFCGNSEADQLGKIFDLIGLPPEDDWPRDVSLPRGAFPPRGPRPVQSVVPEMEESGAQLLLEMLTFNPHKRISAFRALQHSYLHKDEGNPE
T1 sequence (P30281 whole entry partner, the tested form may be a part): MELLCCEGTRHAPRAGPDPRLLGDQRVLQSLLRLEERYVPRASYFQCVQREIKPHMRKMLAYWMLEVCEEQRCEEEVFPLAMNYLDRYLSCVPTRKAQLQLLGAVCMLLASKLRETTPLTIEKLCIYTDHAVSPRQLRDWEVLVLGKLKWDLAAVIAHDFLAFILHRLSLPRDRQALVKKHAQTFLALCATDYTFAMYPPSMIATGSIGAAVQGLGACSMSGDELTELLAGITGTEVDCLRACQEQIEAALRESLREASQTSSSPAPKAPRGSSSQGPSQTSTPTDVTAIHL

Ki (CDK4/Cyclin D3 complex) | Ki [1] | Ki (CHK-1 KH289) | Ki (CDS1/CHK-2 (CDS1 CE4)) | melting point | inhibition at 10 µM (CHK-1 KH289; at 10 μM, read-out: CHK-1 KH289 percent inhibition) | Ki (CDK2/Cyclin A complex) | IC50 (HCT 116 cells) | IC50 (U2-OS cells) | inhibition at 25 µM (CHK-1 KH289; at 25 μM, read-out: CHK-1 KH289 percent inhibition) | SMILES | IC50 (SAOS 2 cells)
2100 nM | 15900 nM | 26600 nM | 15000 nM |  |  |  |  |  |  | O/N=C1/c2ccccc2-c2nc3nonc3nc21 [Comparison Ex. 1, reference compound] | 
790 nM | 1900 nM | 5800 nM |  | 240 to 242 °C |  |  |  |  |  | Nc1nc2cc3c(cc2[nH]1)-c1ccccc1C3=NO (mixture of isomers) [Example B, 2-Amino-9(E/Z)-hydroxyimino-3H-fluoreno[2,3-d]imidazole] | 
1790 nM | 15500 nM |  |  |  | 14% |  |  |  |  | Nc1cc2c(cc1[N+](=O)[O-])-c1ccccc1C2=NO [Comparison Ex. 2(a), reference compound] | 
213 nM | 1470 nM | 571 nM |  |  |  | 680 nM | 10400 nM | 18000 nM |  | ON=C1c2ccccc2-c2cc3[nH]nnc3cc21 (mixture of isomers) [Example C, 9(E/Z)-Hydroxyimino-3H-fluoreno[2,3-d]-1,2,3-triazole] | 11000 nM
3620 nM |  |  | 37000 nM |  |  |  |  |  | 33% | Nc1cc2c(cc1[N+](=O)[O-])-c1cc([N+](=O)[O-])c(N)cc1C2=NO [Comparison Ex. 2(c), reference compound] | 
3210 nM | 923 nM | 8100 nM | 604 nM |  |  |  |  |  |  | Nc1cc2c(cc1N)-c1ccccc1C2=NO [Comparison Ex. 2(b), reference compound] | 
2360 nM | 1330 nM | 3600 nM |  |  |  |  |  |  |  | ON=C1c2ccccc2-c2cc3[nH]cnc3cc21 (mixture of isomers) [Example A, 9(E/Z)-Hydroxyimino-3H-fluoreno[2,3-d]imidazole] | 
1200 nM |  | 166 nM | 21 nM |  |  |  |  |  |  | ON=C1c2cc(I)ccc2-c2cc3[nH]nnc3cc21 (mixture of isomers) [Example D, 9(E/Z)-Hydroxyimino-7-iodo-3H-fluoreno[2,3-d]-1,2,3-triazole] | 
